Assay results reported in patent US20260262643A1, “HERBICIDAL BENZOXAZINES” (FMC CORPORATION, priority 2022, published 2026).

Assays:
[1] = system: blackgrass; assay: Test A preemergence; assay type: in vivo, Alopecurus myosuroides
In short: (§1)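 Seeds in loam–sand blend received a directed preemergence soil spray of compound in non-phytotoxic solvent with surfactant; postemergence plants (2–10 cm, one- to two-leaf stage) were sprayed with the same formulation. After 10 days in greenhouse, injury was rated visually versus untreated controls, 0 (no effect) to 100 (complete control).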

[2] = system: corn; assay: Test A preemergence; assay type: in vivo, Zea mays
In short: as §1

[3] = system: foxtail, giant; assay: Test A preemergence; assay type: in vivo, Setaria faberi
In short: as §1

[4] = system: goosegrass; assay: Test A preemergence; assay type: in vivo, Eleusine indica
In short: as §1

[5] = system: kochia; assay: Test A preemergence; assay type: in vivo, Bassia scoparia
In short: as §1

[6] = system: oat, wild; assay: Test A preemergence; assay type: in vivo, Avena fatua
In short: as §1

[7] = system: pigweed, palmer; assay: Test A preemergence; assay type: in vivo, Amaranthus palmeri
In short: as §1

[8] = system: ragweed; assay: Test A preemergence; assay type: in vivo, Ambrosia artemisiifolia
In short: as §1

[9] = system: ryegrass, Italian; assay: Test A preemergence; assay type: in vivo, Lolium multiflorum
In short: as §1

[10] = system: soybean; assay: Test A preemergence; assay type: in vivo, Glycine max
In short: as §1

[11] = system: wheat; assay: Test A preemergence; assay type: in vivo, Triticum aestivum
In short: as §1

[12] = system: blackgrass; assay: Test A postemergence; assay type: in vivo, Alopecurus myosuroides
In short: as §1

[13] = system: corn; assay: Test A postemergence; assay type: in vivo, Zea mays
In short: as §1

[14] = system: foxtail, giant; assay: Test A postemergence; assay type: in vivo, Setaria faberi
In short: as §1

[15] = system: goosegrass; assay: Test A postemergence; assay type: in vivo, Eleusine indica
In short: as §1

[16] = system: kochia; assay: Test A postemergence; assay type: in vivo, Bassia scoparia
In short: as §1

[17] = system: oat, wild; assay: Test A postemergence; assay type: in vivo, Avena fatua
In short: as §1

[18] = system: pigweed, palmer; assay: Test A postemergence; assay type: in vivo, Amaranthus palmeri
In short: as §1

[19] = system: ragweed; assay: Test A postemergence; assay type: in vivo, Ambrosia artemisiifolia
In short: as §1

[20] = system: ryegrass, Italian; assay: Test A postemergence; assay type: in vivo, Lolium multiflorum
In short: as §1

[21] = system: soybean; assay: Test A postemergence; assay type: in vivo, Glycine max
In short: as §1

[22] = system: wheat; assay: Test A postemergence; assay type: in vivo, Triticum aestivum
In short: as §1

[23] = system: galium; assay: Test A postemergence; assay type: in vivo, Galium aparine
In short: as §1

[24] = system: horseweed; assay: Test A postemergence; assay type: in vivo, Erigeron canadensis
In short: as §1

[25] = system: barnyardgrass; assay: Test B flooded paddy test; assay type: in vivo, Echinochloa crus-galli; conditions: 250 g ai/ha, Flood, 13 days, 0 to 100 scale (0 no effect, 100 complete control)
In short: (§2)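 Visual scores from 0 (no effect) to 100 (complete kill) were assigned 13 days after treatment by comparison with controls. Seedlings had been treated at two leaves by adding compound to floodwater standing 3 cm deep, kept at that level in the greenhouse.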

[26] = system: ducksalad; assay: Test B flooded paddy test; assay type: in vivo, Heteranthera limosa; conditions: 250 g ai/ha, Flood, 13 days, 0 to 100 scale (0 no effect, 100 complete control)
In short: as §2

[27] = system: rice; assay: Test B flooded paddy test; assay type: in vivo, Oryza sativa; conditions: 250 g ai/ha, Flood, 13 days, 0 to 100 scale (0 no effect, 100 complete control)
In short: as §2

[28] = system: sedge, umbrella; assay: Test B flooded paddy test; assay type: in vivo, Cyperus difformis; conditions: 250 g ai/ha, Flood, 13 days, 0 to 100 scale (0 no effect, 100 complete control)
In short: as §2

[29] = 125 g ai/ha, visual injury after 10 days, 0 to 100 scale, 0 is no effect, 100 is complete control
[30] = 500 g ai/ha, 0 to 100 scale (0 no effect, 100 complete control), 10 days
[31] = 125 g ai/ha, postemergence, 10 days, visual injury, 0 to 100 scale (0 no effect, 100 complete control)
[32] = 500 g ai/ha, Postemergence, 0 to 100 scale
[33] = 125 g ai/ha, postemergence, 10 days, 0 to 100 scale, 0 no effect, 100 complete control
[34] = 500 g ai/ha, postemergence, 10 days, visual injury, 0 to 100 scale (0 no effect, 100 complete control)

CC1CN(C(=O)c2cc(-n3cncn3)ccc2F)c2cccc(Cl)c2O1 (stereo not drawn) [Compound 39]
Plant response rating, Blackgrass [1, 29]: 0 | Plant response rating, Blackgrass [1, 30]: 60 | Plant response rating, Corn [2, 29]: 0 | Plant response rating, Corn [2, 30]: 30 | Plant response rating, Foxtail, Giant [3, 29]: 90 | Plant response rating, Foxtail, Giant [3, 30]: 100 | Plant response rating, Goosegrass [4, 29]: 90 | Plant response rating, Goosegrass [4, 30]: 100 | Plant response rating, Kochia [5, 29]: 0 | Plant response rating, Kochia [5, 30]: 50 | Plant response rating, Oat, Wild [6, 29]: 0 | Plant response rating, Oat, Wild [6, 30]: 70 | Plant response rating, Pigweed, Palmer [7, 29]: 50 | Plant response rating, Pigweed, Palmer [7, 30]: 90 | Plant response rating, Ragweed [8, 29]: 10 | Plant response rating, Ragweed [8, 30]: 20 | Plant response rating, Ryegrass, Italian [9, 29]: 40 | Plant response rating, Ryegrass, Italian [9, 30]: 100 | Plant response rating, Soybean [10, 29]: 30 | Plant response rating, Soybean [10, 30]: 70 | Plant response rating, Wheat [11, 29]: 0 | Plant response rating, Wheat [11, 30]: 30 | Plant response rating, Blackgrass [12, 31]: 60 | Plant response rating, Blackgrass [12, 32]: 60 | Plant response rating, Corn [13, 31]: 0 | Plant response rating, Corn [13, 32]: 70 | Plant response rating, Foxtail, Giant [14, 31]: 10 | Plant response rating, Foxtail, Giant [14, 32]: 90 | Plant response rating, Goosegrass [15, 31]: 30 | Plant response rating, Goosegrass [15, 32]: 60 | Plant response rating, Kochia [16, 31]: 30 | Plant response rating, Kochia [16, 32]: 60 | Plant response rating, Oat, Wild [17, 31]: 40 | Plant response rating, Oat, Wild [17, 32]: 90 | Plant response rating, Pigweed, Palmer [18, 31]: 20 | Plant response rating, Pigweed, Palmer [18, 32]: 40 | Plant response rating, Ragweed [19, 31]: 0 | Plant response rating, Ragweed [19, 32]: 60 | Plant response rating, Ryegrass, Italian [20, 31]: 50 | Plant response rating, Ryegrass, Italian [20, 32]: 100 | Plant response rating, Soybean [21, 31]: 100 | Plant response rating, Soybean [21, 32]: 100 | Plant response rating, Wheat [22, 31]: 10 | Plant response rating, Wheat [22, 32]: 50 | Plant response rating, Galium [23, 31]: 90 | Plant response rating, Galium [23, 32]: 100 | Plant response rating, Horseweed [24, 31]: 0 | Plant response rating, Horseweed [24, 32]: 20 | Plant response rating, Barnyardgrass [25]: 0 | Plant response rating, Ducksalad [26]: 0 | Plant response rating, Rice [27]: 0 | Plant response rating, Sedge, Umbrella [28]: 0

C[C@H]1CN(C(=O)c2cccc(-n3cnc(CC4CCCCC4)n3)c2)c2cccc(Cl)c2O1 [Compound 90]
Plant response rating, Blackgrass [1, 29]: 0 | Plant response rating, Blackgrass [1, 30]: 0 | Plant response rating, Corn [2, 29]: 0 | Plant response rating, Corn [2, 30]: 0 | Plant response rating, Foxtail, Giant [3, 29]: 0 | Plant response rating, Foxtail, Giant [3, 30]: 0 | Plant response rating, Goosegrass [4, 29]: 0 | Plant response rating, Goosegrass [4, 30]: 0 | Plant response rating, Oat, Wild [6, 29]: 0 | Plant response rating, Oat, Wild [6, 30]: 0 | Plant response rating, Pigweed, Palmer [7, 29]: 0 | Plant response rating, Pigweed, Palmer [7, 30]: 0 | Plant response rating, Ragweed [8, 29]: 0 | Plant response rating, Ragweed [8, 30]: 0 | Plant response rating, Ryegrass, Italian [9, 29]: 0 | Plant response rating, Ryegrass, Italian [9, 30]: 0 | Plant response rating, Soybean [10, 29]: 0 | Plant response rating, Soybean [10, 30]: 0 | Plant response rating, Wheat [11, 29]: 0 | Plant response rating, Wheat [11, 30]: 0 | Blackgrass plant response rating [12, 33]: 0 | Plant response rating, Blackgrass [12, 34]: 0 | Corn plant response rating [13, 33]: 0 | Plant response rating, Corn [13, 34]: 0 | Foxtail, Giant plant response rating [14, 33]: 0 | Plant response rating, Foxtail, Giant [14, 34]: 0 | Goosegrass plant response rating [15, 33]: 0 | Plant response rating, Goosegrass [15, 34]: 0 | Kochia plant response rating [16, 33]: 0 | Plant response rating, Kochia [16, 34]: 20 | Oat, Wild plant response rating [17, 33]: 0 | Plant response rating, Oat, Wild [17, 34]: 0 | Pigweed, Palmer plant response rating [18, 33]: 0 | Plant response rating, Pigweed, Palmer [18, 34]: 50 | Ragweed plant response rating [19, 33]: 0 | Plant response rating, Ragweed [19, 34]: 0 | Ryegrass, Italian plant response rating [20, 33]: 0 | Plant response rating, Ryegrass, Italian [20, 34]: 0 | Soybean plant response rating [21, 33]: 20 | Plant response rating, Soybean [21, 34]: 20 | Wheat plant response rating [22, 33]: 10 | Plant response rating, Wheat [22, 34]: 10 | Galium plant response rating [23, 33]: 0 | Plant response rating, Galium [23, 34]: 0 | Horseweed plant response rating [24, 33]: 0 | Plant response rating, Horseweed [24, 34]: 0 | Plant response rating, Barnyardgrass [25]: 0 | Plant response rating, Ducksalad [26]: 0 | Plant response rating, Rice [27]: 0 | Plant response rating, Sedge, Umbrella [28]: 0
